# Test results taken from US20230065816A1, “METHODS FOR PREVENTING AND REVERSING OPIOID ANALGESIC TOLERANCE IN SUBJECTS WITH CHRONIC PAIN” (The Reasearch Foundation for Suny, priority 2020, published 2023).
# “Also recorded” adds a separate entry of the source.
# Key:
# [1] = system: rats with spinal nerve ligation (SpNL); assay: von Frey mechanical allodynia test, tolerance from chronic systemic morphine (s.c. morphine pellets); settings: for reversal of spinal morphine antiallodynic tolerance induced by chronic systemic morphine, single agent: CSD or S-CSD 10 μg, PP2 or PP3 300 ng, i.t. on day 8, 45 min before i.t. morphine; for prevention of antiallodynic tolerance to chronic systemic morphine, male rats / prevention of antiallodynic tolerance to chronic systemic morphine, female rats: i.t. 45 min before s.c. morphine pellet implantation on days 1, 3, 5; for prevention of antiallodynic tolerance to chronic systemic morphine, male rats: 10 μg; for prevention of antiallodynic tolerance to chronic systemic morphine, female rats: dose 6 μg or 10 μg
# rats [2] = assay: tail flick latency test, tolerance from chronic systemic morphine (s.c. morphine pellets); settings: i.t. CSD with s.c. morphine pellets; FIG. 4B
# [3] = system: rats with spinal nerve ligation (SpNL); assay: von Frey mechanical allodynia test, spinal morphine tolerance from chronic i.t. morphine; settings: for reversal of spinal morphine antiallodynic tolerance by the single agent: CSD 10 μg or PP2 300 ng i.t. 45 min before i.t. morphine on day 8 or 9 of daily i.t. 15 μg morphine; for reversal of spinal morphine antiallodynic tolerance by the single agent / duration of reversal of morphine tolerance by the single agent: FIGS. 3A, 3B; for duration of reversal of morphine tolerance by the single agent: CSD 10 μg or PP2 300 ng i.t.
# rats [4] = assay: tail flick latency test, spinal morphine tolerance from chronic i.t. morphine; settings: 9 days of daily 15 μg i.t. morphine
molecule,measurement,setting,value
H-Arg-Gln-Ile-Lys-Ile-Trp-Phe-Gln-Asn-Arg-Arg-Met-Lys-Trp-Lys-Lys-Trp-Gly-Ille-Asp-Lys-Ala-Ser-Phe-Thr-Thr-Phe-Thr-Val-Thr-Lys-Tyr-Trp-Phe-Arg-Tyr-OH (H-RQIKIWFQNRRMKWKKWGIDKASFTTFTVTKYWFRY-OH) [S-CSD],"reversal of spinal morphine antiallodynic tolerance induced by chronic systemic morphine, single agent","[1]; FIGS. 6A, 6B",failed to alter antiallodynic action of i.t. morphine; also recorded: had no effect
same,"prevention of antiallodynic tolerance to chronic systemic morphine, male rats",[1]; FIG. 4C,failed to alter morphine tolerance development
same,"prevention of antiallodynic tolerance to chronic systemic morphine, female rats",[1]; FIG. 4A,remained minimal; also recorded: failed to alter morphine tolerance development
H-Arg-Gln-Ile-Lys-Ile-Trp-Phe-Gln-Asn-Arg-Arg-Met-Lys-Trp-Lys-Lys-Asp-Gly-Ile-Trp-Lys-Ala-Ser-Phe-Thr-Thr-Phe-Thr-Val-Thr-Lys-Tyr-Trp-Phe-Tyr-Arg-OH (H-RQIKIWFQNRRMKWKKDGIWKASFTTFTVTKYWFYR-OH) [CSD],"persistence of antinociceptive tolerance blockade after the last i.t. treatment (day 5), tail flick",rats [2],2 days
same,reversal of spinal morphine antiallodynic tolerance by the single agent,[3],fully restored i.t morphine antiallodynia; also recorded: tolerance reversal was complete
same,duration of reversal of morphine tolerance by the single agent,[3]; chronic i.t. morphine,lasted for multiple days
same,"reversal of spinal morphine antiallodynic tolerance induced by chronic systemic morphine, single agent","[1]; FIGS. 6A, 6B",essentially fully restored i.t. morphine antiallodynic action
same,"reversal of tolerance and effect of reapplication of i.t. CSD, male rat","[1]; i.t. 6 μg CSD on day 9, reapplication on day 12, morphine pellets, FIG. 7 right panel",lasted through day 10; also recorded: again restored morphine antiallodynia
same,"prevention of antiallodynic tolerance to chronic systemic morphine, male rats",[1]; FIG. 4C,works identical in males as in females; also recorded: fully manifest
same,"prevention of antiallodynic tolerance to chronic systemic morphine, female rats",[1]; FIG. 4A,increase to cutoff in von Frey thresholds; also recorded: fully manifest
same,unmasking of antiallodynia of on boarded morphine pellet in systemic morphine tolerant animals,"[1]; i.t. CSD 0.33 μg, virtually no pretreatment with i.t. morphine",unmasked robust morphine (from on boarded morphine pellet) antiallodynia
same,"prevention of tolerance and effect of reapplication of i.t. CSD, female rats","[1]; i.t. CSD 6 μg before morphine pelleting, last on day 5, re-applied on day 11, FIG. 7 left panel",prevented morphine tolerance development; also recorded: morphine antiallodynia was fully manifest
same,reversal of tolerance at lower dose of CSD,"[1]; i.t. CSD 3, 1, or 0.33 μg, chronic systemic morphine, data not shown",Full reversal of tolerance development
same,"persistence of tolerance blockade after the last i.t. treatment (day 5), female rats","[1]; i.t. CSD on days 1, 3, 5 with s.c. morphine pellets, FIG. 4A",3 days
same,"persistence of tolerance blockade after the last i.t. treatment (day 5), male rats","[1]; i.t. CSD on days 1, 3, 5 with s.c. morphine pellets, FIG. 4C",3 days
"CC(C)(C)n1nc(-c2ccc(Cl)cc2)c2c(N)ncnc21 [PP2, 3-(4-chlorophenyl) 1-(1,1-dimethylethyl)-1H-pyrazolo[3,4-d]pyrimidin-4-amine]",reversal of spinal morphine antiallodynic tolerance by the single agent,[3],attenuated spinal opioid antiallodynic tolerance
same,duration of reversal of morphine tolerance by the single agent,[3]; chronic i.t. morphine,lasted for multiple days
same,share of opioid naive i.t. morphine responsiveness restored,"[3]; PP2 300 ng i.t. 45 min before i.t. morphine, chronic i.t. morphine, FIG. 3B",approximately 60%
same,duration of tolerance-reversing effect,"[1]; CSD 10 μg or PP2 300 ng i.t. on day 8, chronic systemic morphine, FIGS. 6A, 6B",less than 24 hours
same,"reversal of spinal morphine antiallodynic tolerance induced by chronic systemic morphine, single agent","[1]; FIGS. 6A, 6B",essentially fully restored i.t. morphine antiallodynic action; also recorded: fully restored i.t. morphine antiallodynic effects
"Nc1ncnc2c1cnn2-c1ccccc1 [PP3, 1-Phenyl-1H-pyrazolo[3,4-d]pyrimidin-4-amine]","reversal of spinal morphine antiallodynic tolerance induced by chronic systemic morphine, single agent","[1]; FIGS. 6A, 6B",failed to alter antiallodynic action of i.t. morphine; also recorded: devoid of any effect
"CN1CC[C@]23c4c5ccc(O)c4O[C@H]2[C@@H](O)C=C[C@H]3[C@H]1C5 [morphine, (5a,6a)-7,8-didehydro-4,5-epoxy-17-methylmorphinan-3,6-diol]","analgesic effect of i.t. morphine after chronic daily i.t. morphine (tolerance), tail flick",rats [4],lost most of its analgesic effect
same,"i.t. morphine antiallodynia ED50, morphine naive rats",[3]; FIG. 1B,3.9 µg
same,"i.t. morphine antiallodynia ED50, morphine tolerant rats","[3]; after chronic daily i.t. morphine, FIG. 1B",13.1 µg
same,times more morphine required in tolerant than in naive rats for comparable antiallodynia,"[3]; chronic daily i.t. morphine, FIG. 1B",3.4 times
same,antiallodynic responsiveness to i.t. morphine after chronic daily i.t. morphine (tolerance),"[3]; i.t. morphine 15 μg daily, 6 to 9 days, no CSD/PP2",complete loss of antiallodynic responsiveness; also recorded: lost most of its antiallodynic effectiveness
same,"i.t. morphine antiallodynia ED50, opioid naive rats","[1]; before pelleting, FIG. 5",5.5 µg
same,fold increase of i.t. morphine ED50 in tolerant vs. opioid naive rats,"[1]; chronic systemic morphine, FIG. 5",3.6 fold
same,reduction of i.t. morphine antiallodynic effects by chronic systemic morphine,"[1]; day 7 of morphine pelleting, before PP2, FIG. 6B",approximately 80%
same,"i.t. morphine antiallodynia ED50, chronic systemic morphine-treated (tolerant) rats","[1]; s.c. morphine pellets, FIG. 5",19.7 µg
